Results published in ChEMBL document CHEMBL1158244, “A new norcembranoid dimer from the red sea soft coral Sinularia gardineri” (1996).

Tests used:
Format in all cases: functional
Candida albicans = experiment: Antifungal activity against Candida albicans B311 at 1 mg/mL; conditions: read-out: IZ
Cryptococcus neoformans = experiment: Antifungal activity against Cryptococcus neoformans at 1 mg/mL; conditions: read-out: IZ
A549 = experiment: Cytotoxicity against human A549 cells
P388 = experiment: Cytotoxicity against mouse P388 cells
HT-29 = experiment: Cytotoxicity against human HT29 cells
SK-MEL-28 = experiment: Cytotoxicity against human SK-MEL-28 cells

| Structure (SMILES) | zone of inhibition at 1000 µg/mL (Candida albicans) [mm] | zone of inhibition at 1000 µg/mL (Cryptococcus neoformans) [mm] | Activity (A549) [µg/mL] | Activity (P388) [µg/mL] | Activity (HT-29) [µg/mL] | Activity (SK-MEL-28) [µg/mL] |
| --- | --- | --- | --- | --- | --- | --- |
| C[C@@H]1[C@H](O)[C@@H](C)/C=C/C=C/C=C/C=C/C=C/C=C/C=C/[C@H](O[C@@H]2O[C@H](C)[C@@H](O)[C@H](N)[C@@H]2O)C[C@@H]2O[C@](O)(C[C@@H](O)C[C@@H](O)[C@H](O)CC[C@@H](O)C[C@@H](O)CC(=O)O[C@H]1C)C[C@H](O)[C@H]2C(=O)O [AMPHOTERICIN B] | 12 | 10 | – | – | – | – |
| CC(C)C1=C[C@@H]2[C@H](CC[C@@]2(C)O)[C@@](C)(O)CC1 [GUAIANEDIOL] | – | – | 2.5 | 1 | 5 | 5 |
| C=C(C)[C@H]1CC[C@@]23O[C@@H]2[C@@H](C[C@@]2(C)CC(=O)[C@H](CC(=O)C1)O2)OC(=O)[C@@]12CC[C@H](C(=C)C)CC(=O)C[C@H]4O[C@](C)(CC4=O)C[C@@H](OC3=O)[C@@H]1O2 [SINGARDIN] | 3 | 3 | 2.5 | 1 | 5 | 5 |
